The term IC50 denotes the point on the concentration scale where inhibition reaches its midpoint.

Among the data in patent US11925629B2, “Heterocyclic inhibitors of ERK1 and ERK2 and their use in the treatment of cancer” (Asana Biosciences, LLC, priority 2015, dated 2024) are IC50 values, retold here.

Each structure is given as a SMILES string. Read-outs that look alike come from different tables or passages of the source.

Experiment [1] concerns HCT116 (colorectal carcinoma, K Ras G13D) cells. Briefly: Cell proliferation (Alamar Blue) assay, HCT116. It is filed as cell-based, human. An outline of the steps: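 A 72 h exposure to compound (3-fold series, typically 0.0005 to 10 uM) of cells seeded at 5000/well precedes a 1-3 h Alamar Blue (1×) incubation. Growth inhibition is quantified by fluorescence and fitted to give IC50.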

In experiment [2] the test system is phosphorylation of RSK1(S380) (the downstream target of ERK1/2). Briefly: Phospho-RSK1(S380) ELISA assay in HT-29 cells. Conditions: phospho-RSK1(S380), read-out: Mechanistic Cell Assay RSK1 Phos HT29 IC50. Format: cell-based, human. The protocol:
Phospho-RSK1(S380) ELISA Assay
HT-29 cells (colorectal carcinoma, B-RafV600E); obtained from ATCC, USA) were seeded (60,000 cells/well) in a 96-well plate and incubated at 37° C./5% CO2 overnight and then treated with desired compound dilutions for 2 h. Medium was removed and cells were rinsed once with ice-cold 1×PBS, then 0.070 mL ice-cold 1× cell lysis buffer containing 1 mM PMSF was added to each well and the plate was incubated on a shaker for 2 h and 30 min at 4° C. The plate was then centrifuged for 20 min (×4000 rpm) at 4° C. and the supernatant was transferred to a new plate. Cell lysates were diluted with sample diluent at a ratio of 1:1. The ELISA was then carried out following the manufacturer's protocol (PathScan® phospho-RSK1(Ser380) Sandwich ELISA Kit, Cell Signaling Technologies). The plate was read at 450 nm within 30 min after adding STOP solution. The IC50 values were subsequently determined using a sigmoidal dose-response curve (variable slope) in GraphPad Prism® 5 software.
(ELISA stands for enzyme-linked immunosorbent assay.)

[3] abbreviates: Homo sapiens, HCT-116, HCT116 cells.
Where [4] appears, read: Homo sapiens, HT-29, HT29 cells.

In the case of `Cc1cnc(NC2CCOCC2)nc1-n1cnc(C(=O)NC(c2cccc(Cl)c2)C(C)O)c1` (single isomer, unassigned; isomer #2) [Example 252, N-(1-(3-chlorophenyl)-2-hydroxypropyl)-1-(5-methyl-2-((tetrahydro-2H-pyran-4-yl)amino)pyrimidin-4-yl)-1H-imidazole-4-carboxamide (isomer #2)], the half-maximal inhibitory concentration (IC50) in experiment [1] (setting [3]) was 250 to 500 nM; in experiment [2] (setting [4]), 100 to 250 nM.
For the compound `Cc1cnc(Nc2ccc(Oc3ccccc3)cc2)nc1-n1cnc(C(=O)N[C@H](CO)c2cccc(Cl)c2)c1` (stereo in doubt) [Example 250, N-(1-(3-chlorophenyl)-2-hydroxyethyl)-1-(5-methyl-2-((4-phenoxyphenyl)amino)pyrimidin-4-yl)-1H-imidazole-4-carboxamide], the 50% inhibitory concentration (IC50) in experiment [1] (setting [3]) is more than 2500 nM; in experiment [2] (setting [4]) it was 500 to 2500 nM.
For the compound `O=C(Nc1cnn(-c2ccnc(Nc3ccccc3)c2)c1)N[C@H](CO)c1cccc(Cl)c1` [Example 34, (S)-1-(1-(3-chlorophenyl)-2-hydroxy-ethyl)-3-(1-(2-(phenyl-amino)pyridin-4-yl)-1H-pyrazol-4-yl)urea], the IC50 in experiment [1] (setting [3]) and in experiment [2] (setting [4]) was more than 2500 nM throughout.
On to `Cc1cnc(NC2CCOCC2)nc1-n1cnc(C(=O)NCc2ccccc2CCO)c1` [Example 94, N-(2-(2-hydroxy-ethyl)benzyl)-1-(5-methyl-2-((tetrahydro-2H-pyran-4-yl)amino)pyrimidin-4-yl)-1H-imidazole-4-carboxamide], for which the half-inhibitory concentration (IC50) in experiment [1] (HCT116 cells) and in experiment [2] (HT29 cells) was 500 to 2500 nM in each case.
As for `Cc1cnc(NC2CCOCC2)nc1-n1cnc(C(=O)NC(CO)c2cccs2)c1` (stereo not drawn) [Example 233, N-(2-hydroxy-1-(thiophen-2-yl)ethyl)-1-(5-methyl-2-((tetrahydro-2H-pyran-4-yl)amino)pyrimidin-4-yl)-1H-imidazole-4-carboxamide], the half-maximal inhibitory concentration (IC50) in experiment [1] (setting [3]) was more than 2500 nM; in experiment [2] (setting [4]), not above 100 nM.
For `Cc1cnc(NC2CCOC2)nc1-n1cnc(C(=O)NC(CN)c2cccc(Cl)c2)c1` (stereo not drawn) [Example 235, N-(2-amino-1-(3-chlorophenyl)ethyl)-1-(5-methyl-2-((tetrahydrofuran-3-yl)amino)pyrimidin-4-yl)-1H-imidazole-4-carboxamide], the concentration for half-maximal inhibition (IC50) in experiment [1] (setting [3]) and in experiment [2] (setting [4]) was 100 to 250 nM throughout.
For the compound `Cc1cnc(NC2CCOCC2)nc1-n1cnc(C(=O)NC(CO)c2cccc(C(F)(F)F)c2)c1` (stereo not drawn) [Example 237, N-(2-hydroxy-1-(3-(trifluoromethyl)phenyl)ethyl)-1-(5-methyl-2-((tetrahydro-2H-pyran-4-yl)amino)pyrimidin-4-yl)-1H-imidazole-4-carboxamide], the IC50 in experiment [1] (setting [3]) is more than 2500 nM; in experiment [2] (setting [4]), 250 to 500 nM.
With `Cc1cccc(C(CO)NC(=O)c2cn(-c3nc(NC4CCOCC4)ncc3C)cn2)c1` (stereo not drawn) [Example 238, N-(2-hydroxy-1-(m-tolyl)ethyl)-1-(5-methyl-2-((tetrahydro-2H-pyran-4-yl)amino)pyrimidin-4-yl)-1H-imidazole-4-carboxamide], the IC50 in experiment [1] (setting [3]) was in the range of 500 to 2500 nM; in experiment [2] (setting [4]), 250 to 500 nM.
In the case of `Cc1cnc(NC2CCC(F)(F)CC2)nc1-n1cnc(C(=O)N[C@H](CO)c2cccc(Cl)c2)c1` [Example 240, (S)-N-(1-(3-chlorophenyl)-2-hydroxyethyl)-1-(2-((4,4-difluorocyclohexyl)amino)-5-methylpyrimidin-4-yl)-1H-imidazole-4-carboxamide], the IC50 lay within 250 to 500 nM in experiment [1] (setting [3]) and 100 to 250 nM in experiment [2] (setting [4]).
The matching figures for `Cc1cnc(Nc2ccc(F)cc2Cl)nc1-n1cnc(C(=O)N[C@H](CO)c2cccc(Cl)c2)c1` [Example 241, (S)-1-(2-((2-chloro-4-fluorophenyl)amino)-5-methylpyrimidin-4-yl)-N-(1-(3-chlorophenyl)-2-hydroxyethyl)-1H-imidazole-4-carboxamide]: more than 2500 nM and 250 to 500 nM.
`Cc1cnc(N[C@H]2CC[C@@H](O)CC2)nc1-n1cnc(C(=O)N[C@H](CO)c2cccc(Cl)c2)c1` [Example 242, N-((S)-1-(3-chlorophenyl)-2-hydroxyethyl)-1-(2-(((1r,4S)-4-hydroxycyclohexyl)amino)-5-methylpyrimidin-4-yl)-1H-imidazole-4-carboxamide]: the IC50 is 500 to 2500 nM in experiment [1] (setting [3]) and 250 to 500 nM in experiment [2] (setting [4]).
In the case of `Cc1cnc(NC2CCOCC2)nc1-n1cnc(C(=O)NCc2ccccc2CCO)c1` [Example 243, N-(2-(2-hydroxyethyl)benzyl)-1-(5-methyl-2-((tetrahydro-2H-pyran-4-yl)amino)pyrimidin-4-yl)-1H-imidazole-4-carboxamide], the concentration for half-maximal inhibition (IC50) in experiment [1] (HCT116 cells) is more than 2500 nM; in experiment [2] (setting [4]), 500 to 2500 nM.
With `Cc1cnc(NC2CCOCC2)nc1-n1cnc(C(=O)N[C@]2(c3cccc(Cl)c3)C[C@@H](O)C2)c1` [Example 245, N-((1s,3s)-1-(3-chlorophenyl)-3-hydroxycyclobutyl)-1-(5-methyl-2-((tetrahydro-2H-4-yl)amino)pyrimidin-4-yl)-1H-imidazole-4-carboxamide], the values for the IC50 in experiment [1] (setting [3]) and in experiment [2] (setting [4]) were 500 to 2500 nM and 250 to 500 nM, respectively.
As for `Cc1cnc(NC2CCS(=O)(=O)C2)nc1-n1cnc(C(=O)N[C@H](CO)c2cccc(Cl)c2)c1` (stereo partly drawn) [Example 246, N-((S)-1-(3-chlorophenyl)-2-hydroxyethyl)-1-(2-((1,1-dioxidotetrahydrothiophen-3-yl)amino)-5-methylpyrimidin-4-yl)-1H-imidazole-4-carboxamide], the 50% inhibitory concentration (IC50) in experiment [1] (setting [3]) and in experiment [2] (setting [4]) was more than 2500 nM in each case.
For `Cc1cnc(NC2CCOc3ccccc32)nc1-n1cnc(C(=O)N[C@H](CO)c2cccc(Cl)c2)c1` (stereo partly drawn) [Example 247, N-((S)-1-(3-chlorophenyl)-2-hydroxyethyl)-1-(2-(chroman-4-ylamino)-5-methylpyrimidin-4-yl)-1H-imidazole-4-carboxamide], the 50% inhibitory concentration (IC50) in experiment [1] (setting [3]) was more than 2500 nM; in experiment [2] (setting [4]), not above 100 nM.
The matching figures for `Cc1cnc(Nc2ccc(F)cc2)nc1-n1cnc(C(=O)N[C@H](CN)c2cccc(Cl)c2)c1` [Example 248, (S)-N-(2-amino-1-(3-chlorophenyl)ethyl)-1-(2-((4-fluorophenyl)amino)-5-methylpyrimidin-4-yl)-1H-imidazole-4-carboxamide]: not above 100 nM and 100 to 250 nM.
The matching figures for `Cc1cnc(Nc2ccc(F)cc2)nc1-n1cnc(C(=O)N[C@@H](CN)c2cccc(Cl)c2)c1` [Example 249, (R)-N-(2-amino-1-(3-chlorophenyl)ethyl)-1-(2-((4-fluorophenyl)amino)-5-methylpyrimidin-4-yl)-1H-imidazole-4-carboxamide]: 500 to 2500 nM and 500 to 2500 nM.
Taken in the same sequence, the figures for `Cc1cnc(NC2CCOC(C)C2)nc1-n1cnc(C(=O)N[C@H](CO)c2cccc(Cl)c2)c1` (stereo partly drawn) [Example 251, N-((S)-1-(3-chlorophenyl)-2-hydroxyethyl)-1-(5-methyl-2-((2-methyltetrahydro-2H-pyran-4-yl)amino)pyrimidin-4-yl)-1H-imidazole-4-carboxamide] were 250 to 500 nM and not above 100 nM.
With `Cc1cnc(Nc2ccc(F)c(N3CCOCC3)c2)nc1-n1cnc(C(=O)NC(CN)c2cccc(Cl)c2)c1` (stereo not drawn) [Example 256, N-(2-amino-1-(3-chlorophenyl)ethyl)-1-(2-((4-fluoro-3-morpholinophenyl)amino)-5-methylpyrimidin-4-yl)-1H-imidazole-4-carboxamide], the IC50 in experiment [1] (setting [3]) and in experiment [2] (setting [4]) was not above 100 nM throughout.
For the compound `Cc1cnc(NC2CCOCC2)nc1-n1cnc(C(=O)NC(CO)c2ccc(Cl)s2)c1` (stereo not drawn) [Example 257, N-(1-(5-chlorothiophen-2-yl)-2-hydroxyethyl)-1-(5-methyl-2-((tetrahydro-2H-pyran-4-yl)amino)pyrimidin-4-yl)-1H-imidazole-4-carboxamide], the IC50 in experiment [1] (setting [3]) is more than 2500 nM; in experiment [2] (setting [4]), 250 to 500 nM.
Consider `Cc1cnc(NC2CCOCC2)nc1-n1cnc(C(=O)NC(CO)c2cccc(C(C)(C)C)c2)c1` (stereo not drawn) [Example 258, N-(1-(3-(tert-butyl)phenyl)-2-hydroxyethyl)-1-(5-methyl-2-((tetrahydro-2H-pyran-4-yl)amino)pyrimidin-4-yl)-1H-imidazole-4-carboxamide], for which the half-maximal inhibitory concentration (IC50) in experiment [1] (setting [3]) lay within 500 to 2500 nM; in experiment [2] (setting [4]), 250 to 500 nM.
The matching figures for `Cc1cnc(NC(CO)CO)nc1-n1cnc(C(=O)N[C@H](CO)c2cccc(Cl)c2)c1` [Example 260, (S)-N-(1-(3-chlorophenyl)-2-hydroxyethyl)-1-(2-((1,3-dihydroxypropan-2-yl)amino)-5-methylpyrimidin-4-yl)-1H-imidazole-4-carboxamide]: more than 2500 nM and more than 2500 nM.
`Cc1cnc(NC2CCN(C)CC2)nc1-n1cnc(C(=O)N[C@H](CO)c2cccc(Cl)c2)c1` [Example 296, (S)-N-(1-(3-chlorophenyl)-2-hydroxyethyl)-1-(5-methyl-2-((1-methylpiperidin-4-yl)amino)pyrimidin-4-yl)-1H-imidazole-4-carboxamide]: in experiment [2] (setting [4]), the half-inhibitory concentration (IC50) lay in the range of 500 to 2500 nM.
